This test addresses T1, RSp0980 (Ralstonia pseudosolanacearum, UniProt Q8XR79).
T1 construct: gene narL
Put plainly: biochemical.
T1 sequence (Q8XR79 1-222): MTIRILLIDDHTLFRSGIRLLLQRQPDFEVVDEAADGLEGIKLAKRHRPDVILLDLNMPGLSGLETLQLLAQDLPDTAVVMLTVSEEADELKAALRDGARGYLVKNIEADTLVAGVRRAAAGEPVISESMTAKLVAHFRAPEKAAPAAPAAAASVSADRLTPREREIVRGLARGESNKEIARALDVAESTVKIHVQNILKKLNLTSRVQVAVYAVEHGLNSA
Broadly, the Kd is the concentration at which binding is half-saturated. A higher Kd goes with a looser complex. `Nc1nc2c(ncn2[C@@H]2O[C@@H]3CO[P@](=O)(O)O[C@H]4[C@@H](O)[C@H](n5cnc6c(=O)[nH]c(N)nc65)O[C@@H]4CO[P@](=O)(O)O[C@H]3[C@H]2O)c(=O)[nH]1` [bis-3′,5′-c-di-GMP] gave a Kd of 130.4 ± 1.3 µM.

In turn, `Nc1nc2c(ncn2[C@@H]2O[C@@H]3COP(=O)(O)O[C@@H]4[C@H](O)[C@@H](COP(=O)(O)O[C@H]3[C@H]2O)O[C@H]4n2cnc3c(=O)[nH]c(N)nc32)c(=O)[nH]1` [2′,3′-c-di-GMP] came in with a Kd of 126 ± 1.12 µM.

In the case of `Nc1ncnc2c1ncn2[C@@H]1O[C@H](CO)[C@H]2OP(=O)(O)O[C@H]21` [2′,3′-cAMP], the Kd came to 82 ± 0.93 µM.
